{
  "source": "paper doi:10.1101/657387v2",
  "about": "(biorxiv, 2019)",
  "assay_in_all_cases": "whole-cell patch clamp, HEK-293T",
  "assay_type_in_all_cases": "cell-based",
  "key": {"TASK-3 (hTASK-3) [1]": {"molecular_target": "T1, TASK-3 (hTASK-3) (Homo sapiens, UniProt Q9NPC2)", "T1 sequence (Q9NPC2 whole entry)": "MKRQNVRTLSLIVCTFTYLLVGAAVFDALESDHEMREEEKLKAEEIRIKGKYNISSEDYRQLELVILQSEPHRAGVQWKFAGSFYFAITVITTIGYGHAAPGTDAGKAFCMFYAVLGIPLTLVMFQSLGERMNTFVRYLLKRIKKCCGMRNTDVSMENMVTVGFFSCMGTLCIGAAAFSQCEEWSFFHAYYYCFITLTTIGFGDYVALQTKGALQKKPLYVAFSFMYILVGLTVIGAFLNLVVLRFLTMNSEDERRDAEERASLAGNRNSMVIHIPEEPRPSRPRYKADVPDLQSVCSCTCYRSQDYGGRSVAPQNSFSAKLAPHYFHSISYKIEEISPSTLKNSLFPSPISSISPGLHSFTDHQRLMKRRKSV"}, "TASK-3 (hTASK-3) [2]": {"molecular_target": "T1, TASK-3 (hTASK-3)", "conditions": "dose-response"}, "[3]": {"molecular_target": "T2, TASK-3/TASK-1 (hTASK-3/hTASK-1) (Homo sapiens, UniProt O14649+Q9NPC2)", "T2 sequence (Q9NPC2 whole entry)": "as above", "T2 sequence (O14649 whole entry)": "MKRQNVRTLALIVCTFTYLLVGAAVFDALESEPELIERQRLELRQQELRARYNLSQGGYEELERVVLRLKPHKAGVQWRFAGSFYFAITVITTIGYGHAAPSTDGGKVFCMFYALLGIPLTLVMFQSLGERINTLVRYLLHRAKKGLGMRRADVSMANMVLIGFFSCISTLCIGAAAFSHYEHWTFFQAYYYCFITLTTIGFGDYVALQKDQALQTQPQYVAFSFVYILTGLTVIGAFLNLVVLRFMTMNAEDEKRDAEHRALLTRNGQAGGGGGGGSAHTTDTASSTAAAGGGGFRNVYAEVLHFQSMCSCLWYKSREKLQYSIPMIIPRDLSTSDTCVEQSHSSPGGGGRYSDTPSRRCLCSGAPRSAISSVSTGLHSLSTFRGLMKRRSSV"}, "TASK-3 (hTASK-3) [4]": {"molecular_target": "T1, TASK-3 (hTASK-3)", "conditions": "read-out: % inhibition at 0.5 μM"}, "[5]": {"molecular_target": "T2, TASK-3/TASK-1 (hTASK-3/hTASK-1)", "conditions": "read-out: % inhibition at 0.5 μM"}},
  "data": [
    {"smiles": "Cc1ccc(SCc2cc(O)nc(N=C(N)Nc3cccc4ccccc34)n2)cc1", "note": "[CHET3-1]", "values": [
      {"measurement": "EC50", "setting": "TASK-3 (hTASK-3) [1]", "value": "500 ± 100", "unit": "nM"}
    ]},
    {"smiles": "Cc1ccc(SCc2cc(O)nc(N=C(N)Nc3ccc(C(C)(C)C)cc3)n2)cc1", "note": "[CHET3-2]", "values": [
      {"measurement": "whole-cell patch clamp, HEK-293T", "setting": "TASK-3 (hTASK-3) [2]", "value": "while CHET3-2 was inactive (Fig. 4B)"}
    ]},
    {"smiles": "Cc1ccc(SCc2cc(O)nc(N=C(N)Nc3ccc4c(c3)OCCO4)n2)cc1", "note": "[CHET3]", "values": [
      {"measurement": "EC50", "setting": "TASK-3 (hTASK-3) [1]", "value": "1400 ± 200", "unit": "nM"},
      {"measurement": "EC50", "setting": "[3]", "value": "2500 ± 200", "unit": "nM"}
    ]},
    {"smiles": "CCCC(=O)C1CCN(c2ncnc3c2CN(C(=O)c2ccc(-c4ccccc4)cc2)CC3)CC1", "note": "[PK-THPP]", "values": [
      {"measurement": "inhibition at 0.5 µM", "setting": "TASK-3 (hTASK-3) [4]", "value": "86 ± 3", "unit": "%"},
      {"measurement": "inhibition at 0.5 µM", "setting": "[5]", "value": "90 ± 2", "unit": "%"}
    ]}
  ]
}
